US20090118285A1, “USE OF KCNQ-OPENERS FOR TREATING OR REDUCING THE SYMPTOMS OF SCHIZOPHRENIA” (H. Lundbeck A/S, priority 2006, published 2009)

How the values were obtained:
[1] = Inhibition of baseline motility in vehicle-pretreated, vehicle-challenged mice; details: NMRI, mouse, in vivo
[2] = tested on: DA levels in the nucleus accumbens; assay: Microdialysis: DA levels in the nucleus accumbens of freely moving rats; format: in vivo, rat; details: 8.1 mg/kg s.c.
Source text: It is well-known that psychostimulants increase locomotor activity via an increase in extracellular DA levels in the nucleus accumbens, which is the terminal area of the mesolimbic DA projections (Guix et al., 1992, Neurosci. Lett., 138(1), 137-140; Moghaddam et al., 1989, Synapse, 4(2), 156-161). It is also known, that the antagonistic effect of antipsychotics on stimulant-induced hyperlocomotion is related to the effect of antipsychotics to inhibit the stimulated DA levels in the nucleus accumbens (Broderick et al., 2004, Prog. Neuropsychopharmacology and Biol. Psych., 28, 157-171). Thus, the nucleus accumbens is an accepted neuroanatomical site for testing reversal of positive symptoms of psychosis. […] The experiments were conducted such that the data may be associated with the behavioural data obtained above.
Subjects. Male Sprague-Dawley rats (Charles River), initially weighing 275-300 g, were used. The animals were housed under a 12-hr light/dark cycle under controlled conditions for regular in-door temperature (21±2° C.) and humidity (55±5%) with food and tap water available ad libitum.
Surgery. Animals were anaesthetized with hypnorm/dormicum (2 ml/kg s.c.) and intracerebral guide cannulas (CMA/12) were stereotaxically implanted, positioning the dialysis probe tip in the nucleus accumbens (co-ordinates: […] anterior to bregma, —1.2 mm lateral to bregma, 8.0 mm ventral to the dura). Anchor screws and acrylic cement was applied for fixation of the guide cannula. The body temperature of the animals was maintained at 37° C. by means of a rectal probe and a heating plate. The rats were allowed to recover from surgery for 2 days, housed singly in cages.
Experimental procedure. On the day of the experiment, a microdialysis probe (CMA/12, 0.5 mm diameter, 2 mm length) was inserted through the guide cannula of the conscious animal. The probes were connected to a microinjection pump via a dual channel swivel which allowed the animals unrestricted movements. Perfusion of the microdialysis probe with filtered Ringer solution (145 mM NaCl, 3 mM KCl, 1 mM MgCl2, 1.2 mM CaCl2) was maintained for the duration of the experiment at a constant flow rate of 1 μL/min. After 180 min of stabilisation, the experiments were initiated. Dialysates were collected every 20 min. After the experiments the rats were sacrificed by decapitation, their brains removed, frozen and sliced for probe placement verification.
Administration of compounds. […] Thirty min after the first administration dex-amphetamine sulphate (0.5 mg/kg s.c.) was administered.
Analysis of dialysate. The concentration of dopamine (DA) in the dialysates was assessed by means of HPLC with electrochemical detection. The dialysate constitutents were separated by reverse phase liquid chromatography (ODS 150×3 mm, […]). Mobile phase consisted of 90 mM NaH2PO4, 50 mM sodium citrate, 367 mg/l sodium 1-octanesulfonic acid, 50 μM EDTA and 8% acetonitrile (pH 4.0) at a flow rate of 0.5 ml/min. Electrochemical detection of DA was accomplished using a coulometric detector; potential set at E1=−75 mV and E2=300 mV (guard cell at 350 mV) (Coulochem II, ESA). The dialysate levels of DA in the three dialyse samples preceding the administration of compound were averaged and used as baseline level of DA (100%)

anticonvulsant tests = details: oral and intraperitoneal administration, rats and mice (Rostock et al. 1996); cited from earlier work
in vivo = details: Wistar, rat, sc
[3] = tested on: amphetamine-induced hyperactivity in the rat; assay: Amphetamine challenge: d-amphetamine induced hyperactivity in rats; format: in vivo; details: test substance s.c. 30 min before d-amphetamine sulphate 0.5 mg/kg, motility 2 hours, read-out: Amphetamine antagonism ED50 ± std. dev.
Source text: D-amphetamine administration to rodents stimulates an increase in locomotor activity via mesolimbic dopamine receptors in the nucleus accumbens. While psychostimulant psychosis may not model all forms of schizophrenia, it may have applicability to paranoid schizophrenia and non-schizophrenic psychotic disorders (Krystal et al. pp. 214-224 in Neurobiology of Mental Illness ISBN 0-19-511265-2). It is believed that inhibition of the amphetamine-induced increase in locomotor activity is a reliable method for the evaluation of compounds with an antipsychotic potential (Ögren et al., European J. Pharmacol. 1984, 102, 459-464). In the following experiment, it was tested if the inhibition of spontaneous DA neurons in the mesolimbic circuit that was assessed above, could be translated into behavioral antipsychotic endpoint.
Subjects. Male Wistar rats (Taconic, Denmark) weighing 170-240 g are used. The animals were housed under a 12-hr light/dark cycle under controlled conditions for regular in-door temperature (21±2° C.) and humidity (55±5%) with food and tap water available ad libitum. Eight rats were used at each dose level and in the parallel control group receiving the vehicle to the test compound plus d-amphetamine and the group receiving vehicle injections only.

[4] = tested on: dopaminergic neurons in the ventral tegmental area; details: ex vivo (Hansen et al. 2005); cited from earlier work
[5] = tested on: DA levels in the nucleus accumbens; assay: Microdialysis: DA levels in the nucleus accumbens of freely moving rats; format: in vivo, rat; details: no amphetamine provocation, data not shown

CCOC(=O)Nc1ccc(NCc2ccc(F)cc2)cc1N
ED50 at 30 min [1]: 7.6 mg/kg | DA level in the nucleus accumbens, amphetamine + compound ([2]; time 0 min, freely moving rats): 96 ± 6 % of baseline | DA level in the nucleus accumbens, amphetamine + compound ([2]; time 20 min, amphetamine 0.5 mg/kg s.c. 30 min after compound): 160 ± 11 % of baseline | DA level in the nucleus accumbens, amphetamine + compound ([2]; time 40 min, amphetamine 0.5 mg/kg s.c. 30 min after compound): 241 ± 33 % of baseline | DA level in the nucleus accumbens, amphetamine + compound ([2]; time 60 min, amphetamine 0.5 mg/kg s.c. 30 min after compound): 221 ± 26 % of baseline | DA level in the nucleus accumbens, amphetamine + compound ([2]; time 80 min, amphetamine 0.5 mg/kg s.c. 30 min after compound): 217 ± 14 % of baseline | DA level in the nucleus accumbens, amphetamine + compound ([2]; time 100 min, amphetamine 0.5 mg/kg s.c. 30 min after compound): 173 ± 9 % of baseline | DA level in the nucleus accumbens, amphetamine + compound ([2]; time 120 min, amphetamine 0.5 mg/kg s.c. 30 min after compound): 139 ± 9 % of baseline | DA level in the nucleus accumbens, amphetamine + compound ([2]; time 140 min, amphetamine 0.5 mg/kg s.c. 30 min after compound): 120 ± 9 % of baseline | DA level in the nucleus accumbens, amphetamine + compound ([2]; time −20 min, freely moving rats): 99 ± 6 % of baseline | DA level in the nucleus accumbens, amphetamine + compound ([2]; time −40 min, freely moving rats): 105 ± 3 % of baseline | Activity in a range of anticonvulsant tests (anticonvulsant tests): active after oral and intraperitoneal administration in rats and mice in a range of anticonvulsant tests | ED50 at 2 h (in vivo): > 8.1 mg/kg | ED50 [3]: 2.3 mg/kg | Firing of dopaminergic neurons in the ventral tegmental area [4]: suppress the firing of dopaminergic neurons in the ventral tegmental area ex vivo | Effect on basal extracellular DA level in the nucleus accumbens [5]: merely provoked levels of DA were affected, but not basal levels of DA
